Reference: article PMC10775801 (Drug Design, Development and Therapy, 2024)
Like-named read-outs stand apart in the source and are kept apart here.

Key:
[1] = format: in vivo, Sprague-Dawley rats; conditions: rat plasma
[2] = healthy volunteers, cited from earlier work
in vivo = test: in vivo; design: species or system Sprague-Dawley rats; conditions: rat
[3] = format: in vitro ADME, rat; conditions: room temperature (25 °C for 24 h), sampler 4 °C for 24 h, three freeze-thaw cycles (−20 °C to 25 °C), −80 °C for 14 days
[4] = SD rats, oral 15 mg/kg; cited from earlier work
[5] = mice, rats, and dogs; ref a previous article; cited from earlier work
[6] = oral 30 mg/kg, 4 h after administration

presence in plasma after intravenous administration ([1]; 10 h after intravenous administration): disappeared completely from the plasma | plasma concentration at 24 h ([1]; 24h after single oral administration): very low plasma concentration | concentration at 2 h (in vivo; male, Sprague-Dawley, in vivo, po, 30 mg/kg): 5050 ± 676 ng/g | presence in testis (in vivo; oral 30 mg/kg): not found | highest concentration in heart (in vivo; [6]): 70.49 ± 32.73 ng/g | highest concentration in kidney (in vivo; [6]): 1787.02 ± 364.44 ng/g | highest concentration in lung (in vivo; [6]): 3897.76 ± 217.27 ng/g | highest concentration in pancreas (in vivo; [6]): 648.72 ± 305.97 ng/g | highest concentration in spleen (in vivo; oral 30 mg/kg, 8 h after administration): 3891.80 ± 699.19 ng/g | detectability in the organs (except intestine) at 24 hours (in vivo; oral 30 mg/kg, 24 hours after administration): still detectable | stability in plasma samples and homogenate [3]: stable
Compound: C=C(F)C(=O)N1CCN(c2nc(OC[C@@H]3CCCN3C)nc3c2CCN(c2cccc4cccc(Cl)c24)C3)C[C@@H]1CC#N [Adagrasib]
tmax ([2]; multiple-dose administration): 2.96 h | tmax ([2]; recommended dose of 600 mg): 4.17 h | Cmax [4]: 122.3 ng/mL | t1/2 [4]: 10.13 h | tmax [4]: 6 h | tmax [5]: 4 to 6 h
